Counter-ions that a name gives are not always drawn. Bounds are passed on as bounds.

In one assay the test system is SK-MEL-28 cells. As to the kind of experiment: Cytotoxicity in low glucose condition (MTT). It counts as cell-based. The settings on record: Homo sapiens, SK-MEL-28, 0.75 mM glucose, 72 hours, read-out: SK-MEL-28 0.75 mM glucose Cell viability (IC50 ia). From the text: The inhibition of oxidative phosphorylation (OXPHOS) is not cytotoxic to cells in normal glucose condition, because it is postulated that normal cells have compensatory mechanism under energy stress conditions such as low glucose. However OXPHOS inhibitors show cytotoxic effect on cells in the glucose deprived condition (BirsoyK, 2014). The glucose deprived condition is observed in tumor microenvironment potentially due to poor angiogenesis. Therefore the OXPHOS inhibitors may show anti-cancer effect on cancer cells in low glucose condition that may depict tumor microenvironment.
The compounds of the present invention were evaluated their cytotoxicity in SK-MEL-28, melanoma with 0.75 mM glucose supplement. The cytotoxic effect is compared with the cytotoxicity caused by phenformin. The cytotoxicity in low glucose condition is correlated with inhibition of oxygen consumption in mitochondria.
SK-MEL-28 (HTB-72) is a melanoma cell line obtained from ATCC (MA) and cultured in RPMI 1640 media (Lifetechnologies, CA) with supplement of 10% FBS and antibiotic-antimycotic (Lifetechnologies, CA). RPMI 1640 (-Glucose) was used to prepare low glucose media and 0.75 mM glucose was supplied with D-(+)-glucose solution from Sigma. SK-MEL-28 cells were separated from culture plate using 0.5% trypsin-EDTA and 5,000 cells were plated in 96-well plate with low glucose media. After incubation at 37° C. for 24 hour, 5% CO2, the cells were treated with the compounds of present invention in FBS-free media for 72 hours. The cytotoxicity was measured by the MTT (AMRESCO, OH) assay. NADH-dependent cellular oxidoreductase reduces MTT to its insoluble […] with purple color. The enzyme depends on cell number or energy state of cells. 10 μl of 5 mg/ml MIT solution was added to each well of the assay plate and skip the well for blank. The plate was incubated at 37° C. and 5% CO2 for 2 hours. The MTT solution was removed from each well and 100 μl of DMSO was added. The plate was read by VICTOR X3 Multilabel Counter at the wavelength of 550 nm. In Table 2, the levels of IC50 are evaluated by the following criteria.
In the case of `N=C(N)NC(=N)NCCc1ccccc1Cl` [Example 3, N-1-(2-chloro)phenethylbiguanide hydrochloride], the IC50 (in general, the concentration that gives 50% inhibition) fell in the range of 5 to 10 µM. Regarding `Cc1cc(F)ccc1CCNC(=N)NC(=N)N` [Example 17, N-1-(4-fluoro-2-methyl)phenethylbiguanide hydrochloride], the IC50 is more than 10 µM.

With `CNC(=N)NC(=N)NCCc1ccccc1` [Example 124, N-1-methyl-N-5-phenethylbiguanide hydrochloride], the IC50 is more than 10 µM. On the same count and under the same terms, with `CONC(=N)NC(=N)NCCc1ccc(Cl)c(Cl)c1` [Example 129, N-1-methoxy-N-5-(3,4-dichloro)phenethylbiguanide hydrochloride] the figure was more than 10 µM; with `C/N=C(\NC)NC(=N)NCCc1ccc(Cl)c(Cl)c1` [Example 132, N-1-methyl-N-2-methyl-N-5-(3,4-dichloro)phenethylbiguanide hydrochloride], more than 10 µM.

The next assay concerns A549 cells. Briefly: Inhibition of OCR (XF Analyzer). It counts as cell-based. The conditions noted are these: Homo sapiens, A549, 24 h. From the text: The electron transfer complex in mitochondria is composed of 5 complexes. The complex I accept electrons from NADH produced from glycolysis and TCA cycle and the electrons move to complex […] and the electron is finally transferred to O2 and water molecule is generated. During the electron transfer, proton gradient is generated and the chemical gradient is a driving source to synthesize ATP at complex V. The mitochondrial inhibition of complex I indirectly assessed by measuring the oxygen consumption rate (OCR) at complex IV. […] The solution outside of cells becomes acidic (lower pH) as lactate is transported to outside of cells. OCR and Extracellular acidification rate (ECAR) are determined by XF Analyzer (Seahorse Biosciences).
A549 cells were purchased from American Type Tissue Culture Collection ([…]) and cultured in RPMI 1640 supplied with 10% fetal bovine serum (FBS) and antibiotic-antimycotic (Lifetech, CA). A549 cells were separated with 0.5% Trypsin-EDTA and 3,000 cells were plated on 1 mg/ml poly-D-lysine (Sigma, P6407) coated XF 96 well […]. A549 cells were allowed to adhere to the wells for 24 hours under the condition of temperature, 37° C. and 5% CO2 The sensor cartridge of XF Analyzer was soaked in 200 Ad of Calibrant solution (Seahorse, MA) in a clear 96-well plate at 37° C. for 24 hours. The compounds of the present invention were diluted with RPMI 1640 without FBS, transferred to A549 cells on XF 96 well plate, and incubated further for 23 hours at 37° C. and 5% CO2. After incubation, the compound solution was exchanged with pre-warmed and pH adjusted (pH7.4) XF assay media (Seahorse) supplied with 15 mM D-glucose (Sigma), 15 mM sodium pyruvate (Lifetechnologies, CA) and 4 mM L-glutamine (Lifetechnologies, CA). The compounds of present invention were prepared in XF Assay media and added to the assay plate. The assay plate was equilibrated in XF Analyzer for 1 hour, and the reading were started by sensor cartridge. The cytotoxicity assay was followed using Cyquant (Lifetechnologies, CA) in order to calibrate the inhibition with cytotoxicity of compounds. The concentrations of the compounds were tested at […] and IC50 value was obtained from the inhibited values. That is, from OCR inhibition values at each concentration of the compound, IC50 was calculated according to Prism's dose response curve fitting.
In Table 1, the levels of OCR IC50 are evaluated by the following.
`N=C(N)NC(=N)NCCc1ccccc1Cl` [Example 3, N-1-(2-chloro)phenethylbiguanide hydrochloride] had an IC50 of less than 2 µM. `N=C(N)NC(=N)NCCc1ccc(Cl)cc1Cl` [Example 4, N-1-(2,4-dichloro)phenethylbiguanide hydrochloride] registered an IC50 of 2 to 5 µM. As for `COc1cccc(CCNC(=N)NC(=N)N)c1` [Example 8, N-1-(3-methoxy)phenethylbiguanide hydrochloride], the IC50 lay in the range of 2 to 5 µM. On the same count and under the same terms, with `N=C(N)NC(=N)NCCc1ccccc1F` [Example 9, N-1-(2-fluoro)phenethylbiguanide hydrochloride] the figure was more than 5 µM; with `Cc1ccc(CCNC(=N)NC(=N)N)cc1` [Example 10, N-1-(4-methyl)phenethylbiguanide hydrochloride], more than 5 µM; with `CC(C)c1ccc(CCNC(=N)NC(=N)N)cc1` [Example 14, N-1-(4-isopropyl)phenethylbiguanide hydrochloride], more than 5 µM. Compound `Cc1ccc(CCNC(=N)NC(=N)N)c(C)c1` [Example 16, N-1-(2,4-dimethyl)phenethylbiguanide hydrochloride] returned an IC50 of 2 to 5 µM. `Cc1cc(F)ccc1CCNC(=N)NC(=N)N` [Example 17, N-1-(4-fluoro-2-methyl)phenethylbiguanide hydrochloride] had an IC50 of 2 to 5 µM.

`N=C(N)NC(=N)NCCc1ccc(CCc2ccccc2)cc1` [Example 27, N-1-(4-phenethyl)phenethylbiguanide hydrochloride]: the IC50 fell in the range of 2 to 5 µM. Turning to `Cc1ccc(CNC(=N)NC(=N)N)cc1C` [Example 28, N-1-(3,4-dimethyl)benzylbiguanide hydrochloride], the IC50 was in the range of 2 to 5 µM. The same measure, in the same setting: with `N=C(N)NC(=N)NCc1cccc2ccccc12` [Example 31, hydrochloride] the figure was more than 5 µM. Consider `N=C(N)NC(=N)NCCC1CCCCC1` [Example 32, N-1-2-cyclohexylethylbiguanide hydrochloride], for which the IC50 was more than 5 µM. Same read-out and setting: with `N=C(N)NC(=N)NCc1cccc(Cl)c1` [Example 41, N-1-(3-chloro)benzylbiguanide hydrochloride] the figure was more than 5 µM. In turn, `N=C(N)NC(=N)NCc1ccc2ccccc2c1` [Example 45, hydrochloride] registered a half-maximal inhibitory concentration (IC50) of 2 to 5 µM. `N=C(N)NC(=N)NCCCc1ccc(C2CC2)cc1` [Example 47, N-1-1-(3-(4-cyclopropylphenyl)propyl)biguanide hydrochloride] came in with an IC50 of more than 5 µM. Same read-out and setting: with `N=C(N)NC(=N)NCc1ccc(Oc2ccccc2)cc1` [Example 56, N-1-(4-phenoxy)benzylbiguanide hydrochloride] the figure was more than 5 µM; with `N=C(N)NC(=N)NCCc1ccc(Br)c(Cl)c1` [Example 73, N-1-(4-bromo-3-chloro)phenethylbiguanide hydrochloride], 2 to 5 µM. As to `CCCNC(=N)NC(=N)NCCc1ccc2c(c1)CCCC2` [Example 127, N-1-propyl-N-5-(2-(5,6,7,8-tetrahydronaphthalen-2-yl)ethyl) biguanide hydrochloride], the IC50 was more than 5 µM. On to `N=C(N)NC1Cc2ccccc2C1` [Example 137, 1-(2,3-dihydro-1H-inden-2-yl)guanide hydrochloride], for which the IC50 lay within 2 to 5 µM. Take `Cc1ccc(CCNC(=N)N)cc1` [Example 138, 1-(4-methylphenethyl)guanide hydrochloride]: the IC50 was in the range of 2 to 5 µM. The same measure, in the same setting: with `N=C(N)NCCc1ccc(Cl)c(Cl)c1` [Example 140, 1-(3,4-dichlorophenethyl)guanide hydrochloride] the figure was 2 to 5 µM. `Cc1ccc(CNC(=N)N)cc1` [Example 151, 1-(4-methylbenzyl)guanide hydrochloride] yielded an IC50 of more than 5 µM. Compound `Cc1ccc(CCNC(=N)N)c(C)c1` [Example 155, 1-(2,4-dimethylphenethyl)guanide hydrochloride] gave an IC50 of less than 2 µM. Compound `N=C(N)NCCCc1ccccc1` [Example 165, 1-(3-phenylpropyl)guanide hydrochloride] had an IC50 of 2 to 5 µM. The compound `CN(CCc1ccc(F)cc1)C(=N)N` [Example 174, 1-(4-fluorophenethyl)-1-methyl guanide hydrochloride] gave an IC50 of more than 5 µM. For the compound `C[C@H](CNC(=N)N)c1ccccc1` [Example 175, (S)-1-(2-phenylpropyl)guanide hydrochloride], the IC50 is more than 5 µM. On the same count and under the same terms, with `N=C(N)NCCc1cccc(F)c1` [Example 178, 1-(3-fluorophenethyl)guanide hydrochloride] the figure was more than 5 µM; with `N=C(N)NCc1ccc(Br)cc1` [Example 184, 1-(4-bromobenzyl)guanide hydrochloride], more than 5 µM; with `COc1ccc(CCCNC(=N)N)cc1` [Example 185, 1-(3-(4-methoxyphenyl)propyl)guanide hydrochloride], more than 5 µM.

For `N=C(N)NCCc1ccc(CCc2ccccc2)cc1` [Example 187, 1-(4-phenethylphenethyl)guanide hydrochloride], the IC50 was more than 5 µM. Same read-out and setting: with `CN(CCCc1ccccc1)C(=N)N` [Example 188, 1-methyl-1-(3-phenylpropyl)guanide hydrochloride] the figure was more than 5 µM; with `N=C(N)NCCC1CC1` [Example 190, 1-(2-cyclopropylethyl)guanide hydrochloride], 2 to 5 µM; with `N=C(N)NCCc1cccc2c1CCCC2` [Example 192, hydrochloride], 2 to 5 µM.

Turning to `N=C(N)NCc1ccc2ccccc2c1` [Example 198, 11-(naphthalen-2-ylmethyl)guanide hydrochloride], the IC50 is 2 to 5 µM. On to `N=C(N)NCc1ccc(-c2ccccc2)cc1` [Example 200, N-(4-phenyl)benzyl guanide hydrochloride], for which the IC50 lay in the range of 2 to 5 µM.

For `N=C(N)NCc1ccc(Oc2ccccc2)cc1` [Example 203, 1-(4-phenoxybenzyl) guanide hydrochloride], the IC50 was 2 to 5 µM. On the same count and under the same terms, with `Cc1cc(CCNC(=N)N)ccc1Cl` [Example 206, 1-(4-chloro-3-methylphenthyl)guanide hydrochloride] the figure was less than 2 µM; with `Cc1cc(CNC(=N)N)ccc1Br` [Example 207, 1-(4-bromo-3-methylbenzyl) guanide hydrochloride], more than 5 µM.

These data come from patent US11465989B2, “Guanidine compounds and use thereof” (IMMUNOMET THERAPEUTICS INC., priority 2014, dated 2022).
